Laboratory results from US11370795B2, “Process for the synthesis of 6-[(3S,4S)-4-methyl-1-(pyrimidin-2-ylmethyl)pyrrolidin-3-yl]-3-tetrahydropyran-4-yl-7H-imidazo[1,5-a]pyrazin-8-one” (Imara Inc., priority 2017, dated 2022).

Experiments:
[1] = Blood Brain Barrier penetration (plasma and brain concentration); format: in vivo
[2] = Stability study of drug substance in sealed pouches; format: physicochemical; conditions: ambient temperature and 40° C.-45° C. (no humidity control), 3-month period, polyethylene pouches in aluminum pouch
Method: A stability study has been completed on Compound P3.1. Samples of Compound P3.1 were aliquoted into double-walled polyethylene pouches, which were tied off and then heat-sealed in an aluminum pouch. Samples were stored at ambient temperature and at 40° C.-45° C. (no humidity control) with testing performed over a 3-month period.

Brain concentration after 120 minutes ([1]; brain, 120 min)	Changes to appearance or purity of the material [2]	Kp at 0.5 h ([1]; brain/plasma, 30 min, read-out: Brain/Plasma ratio after 30 minutes)	Kp at 2 h ([1]; brain/plasma, 120 min, read-out: Brain/Plasma ratio after 120 minutes)	SMILES
detection limit	–	–	–	O=c1[nH]c(CN2CC(Oc3cccnc3)C2)cn2c(C3CCOCC3)ncc12 [Compound (P2)]
–	no changes to appearance or purity	0.04	0.03	C[C@@H]1CN(Cc2ncccn2)C[C@H]1c1cn2c(C3CCOCC3)ncc2c(=O)[nH]1 [Compound P3.1, 6-[(3S,4S)-4-methyl-1-(pyrimidin-2-ylmethyl)pyrrolidin-3-yl]-3-tetrahydropyran-4-yl-7H-imidazo[1,5-a]pyrazin-8-one]
